{"source": "patent US20230226047A1", "about": "“COMBINATION THERAPY FOR TREATMENT OF CANCERS” (Health Research, Inc., priority 2019, published 2023)", "key": {"[1]": {"system": "TRAMP C2 cells grafted in C57B/6 mice", "test": "TRAMP C2 subcutaneous graft in immunocompetent C57B/6 mice", "format": "in vivo, mouse", "procedure": "(§1) Immunotherapy in prostate cancer (PCa) lags behind the progresses obtained in other cancer types partially because of its limited immune infiltration. While a few studies reported increased homing of immune cells in response to androgen deprivation therapy (ADT), the mechanism by which this occurs is still poorly understood. Using TCGA PCa RNASeq data patients were divided into top/bottom 30% based on the expression of WHSC1 and DFS was calculated for both groups. Publicly available ChIPSeq data were obtained from Cistrome and integrated with the available RNASeq data. RNASeq, ATACSeq and EPIC Infinium MethylArrays were analyzed using R Bioconductor packages comparing C42 cells with or without stable knockdown on WHSC1. Flow cytometry was used to measure MHC levels, MHC-bound OVA and tumor infiltration. C57B6 and NSG mice were subcutaneously grafted with TRAMP C2 cells and treated with MCTP39 (10 mg/kg); tumor size was monitored over time and curves compared using permutation analyses. All analyses use a significance threshold of 0.05.\nMice and in vivo experiments: Male C57B/6J mice (6-8 weeks of age) and NSG mice (10-12 weeks of age) were obtained from the Roswell Park's Center For Immunotherapy breeding colonies. All in vivo experiments were made following institutional and IACUC regulations. In vivo experiments were not blinded. C2 cells (1×10^6 cells/100 μl) were injected subcutaneously into the right flank of male C57BL/6J mice (n=6/group) or NSG mice (n=5/group) using a 27 G needle. Sample size was chosen based on pilot studies and chosen to include the potential loss of mice prior treatment. Tumor volume was monitored weekly with an electronic caliper and calculated as V=(W^2×L)/2, where Vis tumor volume, W is tumor width and L is tumor length. When tumors reached 100 mm^3, mice were randomized prior treatment with either MCTP-39 (10 mg/kg 5×/week/4 weeks) or vehicle control. Mice were euthanized either when tumors reached […] in any dimension, as per Institutional IACUC regulations, when mice show signs of advanced disease or after 4 weeks of treatment. Tumors were harvested and weighted, single cells suspension was prepared using the Tumor dissociation kit (Miltenyi Biotech) as per manufacturing instructions prior flow cytometry analysis.\nFlow cytometry and antibodies: Single cell suspension from tumors was stained the antibodies listed in Table S3 (FIG. 14) for 20 min at 4° C. After staining, cells were washed and fixed with fixation buffer for 15 min at 4° C. followed by washing 2× with FACS buffer. Cells were resuspended in 200 μl of FACS buffer before acquiring data on BDLSR IIA flow cytometer. Data were analyzed using FCS express 7 Research Edition.\nStatistical methods: Survival analysis was performed dividing patients based on the upper/lower 25% of the expression levels of WHSC1, significance, HR and confidence intervals were calculated using cox proportional hazard model available in the R package survival. […] Significance for the AUC analysis was calculated by simulating 10,000 AUCs using randomly selected genes in the RNASeq dataset. The empirical p value was calculated by dividing the number of expected/simulated AUCs higher than our observed value by 10,000 (number of simulations). Significance when comparing two groups was calculated via two-tailed Student's t.test at a significance threshold of 0.05. […]"}, "[2]": {"system": "OVA-overexpressing TRAMP C2 cells", "test": "Flow cytometry of antigen-bound MHC (OVA-bound H2Kb)", "format": "cell-based, murine", "settings": "48 hours, FIG. 7C-D", "text": "OVA overexpression: Soluble ovalbumin (OVA) gene, which was amplified from pCI-neo-sOVA (Addgene plasmid 25098), and monomeric enhanced green fluorescent protein (mEGFP) gene, which was amplified from mEGFP-N1 (Addgene plasmid 54767), were genetically fused via P2A translational skipping sequence and cloned in the Sleeping Beauty transposon plasmid with the human elongation factor 1α promoter. This plasmid, pT2-EF-OVA-mEGFP, was electroporated together with the Sleeping Beauty Transposase plasmid, pCMV(CAT)T7-SB100 (a gift from Zsuzsanna Izsvak; Addgene plasmid #34879), into TRAMP-C2 by Nucleofector 4D instrument. The electroporated cells were kept in maintenance medium (DMEM supplemented with 10% FBS, 0.005 mg/ml bovine insulin, 1 nM DHT and cell sorted based on mGFP expression using FACS Aria I cell sorter. The expression of OVA on sorted cells were confirmed by western blotting using rabbit polyclonal OVA antibody (ab186717) at 1:4000 dilution and flow cytometry using PE anti-mouse H-2K^b bound to SIINFEKL (BioLegend) before incubating with or without MCTP-39 for 48 hours. The expression of OVA was analyzed after 48 hours by flow cytometry using BDLSRIIA cytometer and data was analyzed by FCS express 7 Research Edition."}, "C42 cells": {"system": "C42 cells", "test": "Flow cytometry of MHC expression after MCTP-39 and IFNg treatment, human C42 cells", "format": "cell-based", "settings": "combined treatment with MCTP-39 and IFNg, FIG. 7A", "procedure": "(§2) Cell proliferation: Knock down of WHSC1 in C4-2 and TRAMP C-2 cells is discussed in previous sections. Cells were counted at 48, 96 and 144 hours. For pharmacological inhibition, cells either C4-2 or TRAMP C2 were seeded overnight at 4×10^3 cells per 100 μl media in a 96 well plate, the following day cells were treated with vehicle control or different concentrations of MCTP-39 (0-10 μM) for 48 hours. After 48 hours, C4-2 or TRAMP C-2 cells were either counted or used for staining with MHCI/II antibodies. Briefly cells were detached using trypsin and washed with FACS buffer for 5 minutes at 300 g. The pellet was resuspended in FACS buffer and stained with MHC-I/II antibodies for 20 minutes at 4 C. After incubation, cells were washed with FACS buffer 2× and resuspended in 200 μl of FACS buffer before acquiring the data on a flow cytometer."}, "TRAMP C2 cells": {"system": "TRAMP C2 cells", "test": "Flow cytometry of MHC expression after MCTP-39 and IFNg treatment, murine TRAMP C2 cells", "format": "cell-based", "settings": "combined treatment with MCTP-39 and IFNg, FIG. 7B", "procedure": "as §2"}, "[3]": {"system": "TRAMP C2 cells grafted in NSG mice", "test": "TRAMP C2 subcutaneous graft in immunocompromised NSG mice", "format": "in vivo, mouse", "settings": "10 mg/kg, four weeks, p=0.1461, permutation test, FIG. 8B", "procedure": "as §1\nMice and in vivo experiments: Male C57B/6J mice (6-8 weeks of age) and NSG mice (10-12 weeks of age) were obtained from the Roswell Park's Center For Immunotherapy breeding colonies. […] Tumor volume was monitored weekly with an electronic caliper and calculated as V=(W^2×L)/2, where Vis tumor volume, W is tumor width and L is tumor length. […]"}, "[4]": {"settings": "C57B/6 mice, tumors at endpoint, flow cytometry, FIG. 8C"}}, "note": "“Also recorded” adds a separate entry of the source.", "data": [{"smiles": "NNc1nc2ccccc2[nH]c1=S", "note": "[MCTP39]", "values": [{"measurement": "Tumor growth", "setting": "[1]; C57B/6 mice, 10 mg/kg IP for four weeks, p=0.0023, permutation test, FIG. 8A, 10 mg/kg", "value": "significantly reduced"}, {"measurement": "Tumor weight", "setting": "[1]; C57B/6 mice, at endpoint, FIG. 8C", "value": "reduced"}, {"measurement": "CD8+ T cells infiltration", "setting": "[1]; [4]", "value": "increased"}, {"measurement": "H2Kb (MHC) expression on the tumor", "setting": "[1]; [4]", "value": "increased"}, {"measurement": "intratumoral CD8+PD1+ T cells", "setting": "[1]; preliminary in vivo data", "value": "may increase"}, {"measurement": "OVA-bound H2Kb fraction", "setting": "[2]", "value": "increased"}, {"measurement": "upregulating HLA-B7, HLA-F, HLA-E, HLA-DQ, HLA-DM", "setting": "C42 cells", "value": "additive effect"}, {"measurement": "upregulating murine H2Kb I-A/I-E", "setting": "TRAMP C2 cells", "value": "additive effect"}, {"measurement": "Tumor growth", "setting": "[3]", "value": "limited and non-significant effect; also recorded: Not Significant; also recorded: not observed"}]}]}
